# From PubChem BioAssay AID844 (SRMLSC, 2007)
# Active and inactive are the calls of the source. How the calls were made is not given here.
# Test system: MRP1 cells, doxorubicin viability shift, 10 uM compound
# Assay: doxorubicin EC50 increase in MRP-1 cells, dose response, cell-based, doxorubicin EC50 shift (AID 844)
# Settings: for EC50: measured here: doxorubicin EC50 with compound
SMILES,fold increase in Dox EC50,EC50 [µM]
CC(C)(C)c1cc(Br)ccc1OCC(=O)Nc1ncn[nH]1,0.89 (inactive),4.78
CCOc1ccc(NC(=O)Nc2cc(-c3ccccc3)sc2C(=O)OC)cc1,0.62 (inactive),3.34
Cc1ccccc1NC(=O)CC1SC(=O)N(c2ccccc2)C1=O (stereo not drawn),1.35 (inactive),7.29
CCOc1cc(/C=C2\SC(=Nc3ccccc3)N(c3ccccc3)C2=O)ccc1OCC(=O)O,0.94 (inactive),5.09
Cc1nc(NC(=S)NC(=O)c2cccs2)sc1C(=O)N(C)C,1.04 (inactive),5.59
Nc1ccc(C(=O)OCC(=O)N2c3ccccc3Sc3ccccc32)cc1[N+](=O)[O-],1.29 (inactive),6.97
COc1ccc(/C=N/Nc2nc(-c3ccc(Cl)cc3)cc(C(F)(F)F)n2)cc1OC,0.35 (inactive),1.9
Cc1nnc(NC(=O)c2c(F)cccc2F)s1,1.23 (inactive),6.63
CCCCOc1ccc(/C=C/C(=O)Nc2ccc([N+](=O)[O-])cc2C)cc1,1.17 (inactive),6.3
CC(Oc1ccc(Cl)cc1Cl)C(=O)NC1CCSC1=O (stereo not drawn),1.98,10.7
COc1ccc(Cc2nnc(NC(=O)c3c(-c4ccccc4)noc3C)s2)cc1OC,0.52 (inactive),2.79
CN(C)C(=O)Oc1ccc(OC(=O)c2ccccc2)cc1,1.17 (inactive),6.32
CCOC(=O)c1sc(-c2ccccc2)cc1NC(=O)Nc1ccccc1,0.4 (inactive),2.16
CCCCCCCOc1ccc(-c2ccc(C#N)cn2)cc1,0.67 (inactive),3.63
Cc1cc(C)nc(NN2C(=O)/C(=C/c3ccccc3)SC2=S)n1,1.56,8.42
O=C(Nc1nc(-c2cccs2)c(-c2cccs2)s1)C1(c2ccccc2)CC1,0.66 (inactive),3.58
N#Cc1c(-c2cccs2)nc(SCC(=O)c2cccs2)[nH]c1=O,1.12 (inactive),6.05
Cc1ccc(N2C(=O)C3C(c4ccccc4)(C2=O)C3(c2ccccc2)c2ccccc2)cc1 (stereo not drawn),0.22 (inactive),1.16
Cc1ccc(NC(=O)CSc2nnc(C)n2-c2ccccc2)cc1,1.61,8.71
CCOC(=O)C1=C(C)N=C2SC(CC)C(=O)N2C1c1cccc(F)c1 (stereo not drawn),1.14 (inactive),6.14
COc1cccc(/C=N/NC(=O)Cn2nc(C)c([N+](=O)[O-])c2C)c1O,0.12 (inactive),0.673
N=c1oc2c3c4c(cc2cc1C(=O)Nc1ccccc1)CCCN4CCC3,0.43 (inactive),2.32
N#Cc1ccc(N2C(=O)[C@@H]3C(C(=O)c4ccc5ccccc5n4)=NN[C@@H]3C2=O)cc1,1.3 (inactive),7
COc1ccccc1-c1nc(C#N)c(N2CCc3ccccc3C2)o1,0.37 (inactive),1.99
CCC(=O)c1ccc(N2CCOCC2)c(F)c1,1.32 (inactive),7.12
Cc1cc(C(=O)COC(=O)c2ccc3c(c2)OCO3)c(C)n1Cc1cccs1,1.06 (inactive),5.7
CCOc1ccc(-c2nc(C#N)c(N3CCCCCC3)o2)cc1,0.56 (inactive),3.04

SMILES,fold increase in Dox EC50,EC50 [µM]
Cc1ccc(OCc2nc(-c3ccc(Cl)cc3)n[nH]2)cc1,0.79 (inactive),4.24
CCNc1ccc(C(=O)OCC(=O)c2cc(C)n(Cc3ccc4c(c3)OCO4)c2C)cc1[N+](=O)[O-],1.06 (inactive),5.74
COc1ccc(NC2=Nc3ccccc3N3C2=Nc2c(c(C)nn2-c2ccc(C)cc2)C3c2cccnc2)cc1 (stereo not drawn),0.6 (inactive),3.24
CCc1nnc(NC(=O)c2ccc(S(=O)(=O)NCC(C)C)cc2)s1,0.53 (inactive),2.88
COc1ccc2cc(-c3cc(C(=O)O)c4ccccc4n3)ccc2c1,1.07 (inactive),5.75
Cc1ccc(N/N=C(\C#N)C(N)=S)c(C)c1,0.6 (inactive),3.25
COc1cccc(/C=N/N2C(=O)CSC2=S)c1O,1.31 (inactive),7.08
COc1ccc(C(=O)Nc2ccccc2Cc2ccccc2)c(OC)c1,0.66 (inactive),3.54
CCN(CC)S(=O)(=O)c1ccc2c(c1)nc(SCn1nnc3ccccc3c1=O)n2CC,0.52 (inactive),2.79
CCOc1ccc(OCC)c(-c2c(=O)n(OCc3ccc(C(C)(C)C)cc3)c3ccccc3[n+]2[O-])c1,0.85 (inactive),4.6
O=C(N/N=C/c1ccc(-c2ccc([N+](=O)[O-])cc2)o1)C(O)c1ccccc1 (stereo not drawn),0.74 (inactive),3.97
CCOc1ccc(C2CC(c3ccc(CC)cc3)Nc3nc(N)nn32)cc1 (stereo not drawn),1.24 (inactive),6.69
Cc1cccc(C2CC(c3ccccc3)Nc3ncnn32)c1 (stereo not drawn),0.46 (inactive),2.46
CC(=O)N1CCN=C1SCc1ccc(Br)cc1,0.97 (inactive),5.26
Clc1ccc(Cc2nnc(-c3ccccc3Br)o2)cc1,1.14 (inactive),6.15
COc1ccc(NC(=O)CCCC2CCCCC2)cc1S(=O)(=O)N1CCCCC1,1.68,9.05
CC(C)N(Cc1cc2ccccc2[nH]c1=O)C(=O)C(C)(C)C,1.47 (inactive),7.93
N/C(Cc1cccs1)=N\OC(=O)COc1ccc(Br)cc1,1.01 (inactive),5.44
CCOc1ccccc1N(C(=O)c1snc(C(N)=O)c1N)C(C(=O)NCCC(C)C)c1ccco1 (stereo not drawn),0.3 (inactive),1.62
CC(C)(C)c1ccc(OCC(O)CSc2ncn[nH]2)cc1 (stereo not drawn),0.88 (inactive),4.74
CCOC(=O)CN1C(=O)C(C)(C)Oc2ccc(C(=O)Nc3ccccc3OC)cc21,0.85 (inactive),4.6
COc1ccc(-c2cc3nc(-c4ccccc4)cc(N4CCC5(CC4)OCCO5)n3n2)cc1,0.21 (inactive),1.16
Cc1n[nH]c(=S)n(/N=C/c2ccccn2)c1=O,0.91 (inactive),4.9
Cc1ccccc1Cn1ccc(NC(=O)c2onc(C)c2Cl)n1,1.15 (inactive),6.24
Nc1nc2n(n1)C(c1cccs1)CC(c1ccc(Br)cc1)N2 (stereo not drawn),0.91 (inactive),4.93
CCOC(=O)c1cc(-c2ccccc2)sc1NC(=O)C(C)Sc1nnc(C)s1 (stereo not drawn),0.53 (inactive),2.87
COc1ccc(NC(=O)C(=O)N/N=C/c2cc(C)n(-c3cccc(Cl)c3Cl)c2C)c(OC)c1,1.43 (inactive),7.74
